Entries after “also recorded” stand apart in the source; their conditions may differ.

Results on six compounds are retold here after patent US6001872A, “Water soluble transplatinum complexes with anti-cancer activity and method of using same” (priority 1999, dated 1999).

In data set [1] the test system is murine L1210 cisplatin-sensitive leukemia cells. Briefly: Cytotoxicity: cell-growth inhibition in murine L1210 cisplatin-sensitive leukemia cells, 72-hour drug incubation. Format: cell-based. Conditions: for IC50: 72-hour drug incubation, read-out: ID50 (50% inhibitory drug concentration); for cytotoxicity compared with cisplatin: in vitro. The procedure: Studies were performed in vitro to assess the cytotoxicity of trans-[Pt(PyAc-N,O)Cl(NH3)] in comparison to several relevant Pt compounds. Cytotoxicity was monitored by cell-growth inhibition experiments in murine L1210 cisplatin-sensitive leukemia cells. The L1210 cell line has been used as a prognosticator of human antitumor activity for some time [Wolpert-DeFilippes, M. K., "Antitumor Activity of Cisplatin Analogs" in: Cisplatin. Current Status and Developments, Prestayko, A. W., Crooke, S. T., and Carter, S. K., eds, Academic Press, (London) 1980, pp. 183-192.]. A separate, non-treated culture was used as a control for these investigations.

The conditions of data set [2]: presence of a planar ligand, trans geometry; cited from earlier work.
For data set [3] the following is noted: in vivo; cited from earlier work.
A short description of data set [4]: N,O-chelate formation (displacement of chloride by carboxylate, complex 1 to complex 2). It is filed as physicochemical. The text has this:
The details of this synthesis may be found in Example 1 below. The preparation utilizes the anionic N,O-chelating ligand pyridine-2-yl-acetate (PyAc), which introduces a carboxylate donor cis to the nitrogen atom of the planar ligand. The bidentate ligand was used in its O-protected form, i.e., the corresponding methylester (PyAcMe). Formation of the N,O-chelate was achieved via the intermediate dichloro form, trans-[PtCl2 (NH3)(PyAcH)].H2 O (complex 1.H2 O) at neutral pH.
For the purposes of this invention, it should be further noted that the form for administration to patients may be either complex 1 or complex 2, since the former would spontaneously form the N-O chelate under physiological conditions.

`N.N.[Cl][Pt][Cl]` [cisplatin, cis-[PtCl2 (NH3)2]]: the IC50 in data set [1] came to 430 nM.

On to `N.[Cl][Pt][Cl].c1ccc2ncccc2c1` [trans-[PtCl2 (NH3)(quinoline)]], for which the “in vitro cytotoxicity, effect of planar ligand” value in data set [2] is “dramatically enhances the in vitro cytotoxicity”.

In the case of `N.N.[Cl][Pt+2][Cl]` [transplatin, trans-[PtCl2 (NH3)2]], in data set [1], the IC50 worked out at 14000 nM and the “cytotoxicity compared with cisplatin” value was “inactive”. In data set [3], the “therapeutic/biological activity” value is “biologically inactive; also recorded: therapeutically inactive”.

Take cis-[Pt(PyAc-N,O)Cl(NH3)]: the IC50 in data set [1] is more than 20000 nM. The “cytotoxicity compared with cisplatin” value is “inactive” in data set [1] and “must be considered inactive” in data set [1] (listed as cis-isomer).

With trans-[Pt(PyAc-N,O)Cl(NH3)] [Complex 2], the solubility in water stood at 4 mmol 1-1. Moreover, in data set [1], the IC50 worked out at 880 nM and the “cytotoxicity compared with cisplatin” value is listed as “comparably cytotoxic to cisplatin itself”.

On to trans-[PtCl2 (NH3)(PyAcH)] [Complex 1], for which, in data set [4] (e.g. in 10^-2 M HCl), the “displacement of chloride by carboxylate” value is listed as “remarkably facile”. Moreover, the “formation of complex 2 from complex 1” value in data set [4] (pH values greater than 2) is given as “readily formed”.
